Data: PMC9381536, “Non-apoptotic cell death induction via sapogenin based supramolecular particles” (Scientific Reports, 2022)
“Also recorded” adds a separate entry of the source.

Columns and labels:
MCF7 = test: Cytotoxicity analysis (WST-1); type: cell-based; settings: Homo sapiens, MCF7, 48 h
Protocol: (§1) HCC1937 (Human breast cancer line), HeLa (Human […]), A549 (Human lung adenocarcinoma), MRC-5 (Human lung fibroblasts), MCF7 (Human breast cancer cells), A549 (human lung carcinoma) were obtained from American Type Culture Collection and maintained as exponentially growing monolayers by culturing according to the supplier’s instructions. MCF7, HeLa, MRC-5, and A549 cell lines were cultured and routinely passaged in DMEM media containing 10% FBS, while HCC1937 cell lines were propagated in RPMI 1640 containing 10% FBS.
(§2) Following the treatment with compounds or vehicle for 48 h, the 10% WST-1 (Roche, Switzerland) in medium was replaced in each 96 well. After 4 h incubation with WST-1 reagent at 37 °C and 5% CO2, the absorbance was measured using a microplate reader at 440 nm (Varioscan, Thermo Fisher Scientific, US). Graph Pad Prism 5 (San Diego, CA, US.) was used to calculate the IC50, which represents the concentration of compounds that is required for 50% inhibition in comparison to the vehicle-treated controls. The experiments were repeated three times independently.

HeLa = test: Cytotoxicity analysis (WST-1); type: cell-based; settings: Homo sapiens, 48 h
Protocol: as §1, §2

HCC1937 [1] = test: Cytotoxicity analysis (WST-1); type: cell-based; settings: Homo sapiens, HCC1937, 48 h
Protocol: as §1, §2

A549 = test: Cytotoxicity analysis (WST-1); type: cell-based; settings: Homo sapiens, A549, 48 h
Protocol: as §1, §2

MRC-5 = test: Cytotoxicity analysis (WST-1); type: cell-based; settings: Homo sapiens, MRC5, MRC-5 normal cell line, 48 h
Protocol: as §1, §2

[2] = Nile red staining (particle formation); type: physicochemical; settings: even at 30 µM
Protocol: AG-08 and AG were dissolved in DMSO as a 1000-fold concentrated stock added into the filtered PBS, which contain 2.5 µM Nile red. After 3 h incubation at room temperature, the fluorescence intensity was measured with a microplate reader (550 nm for excitation and 635 nm for the emission wavelength) (Varioscan, Thermo Fisher Scientific, US).

HCC1937 cells = test: Cytotoxicity of 220 nm filtrates; type: cell-based; settings: inferred from filtration and Tween-20 tests
Protocol: Figure 1 AG-08 mediated cytotoxicity relies on the supramolecular structures. (A) Structure of AG-08. (B) The scanning transmission electron micrograph of 16 µM AG-08 in PBS. Figure is a representative image of stained sample with uranyl acetate (5683 × magnification; scale bar 600 nm). (C) After 3 h incubation of Nile red solution with AG-08 or AG, fluorescence intensity of Nile red was measured. (D) AG-08, Staurosporine (Sta) or vehicle samples prepared in the cell condition medium was filtrated by 220 nm filter and HCC1937 cells were exposed to the filtrates. After 24 h, the viability of cells was measured and represented as a percentage of that of the vehicle control. The error bars represent mean value ± s.d. (n = 3). *p < 0.05, **p < 0.005, ***p < 0.001. (E) Tween 20 (1:40,000) was added to the fresh medium before addition of 8 μM AG-08 or vehicle. Then cell medium was replaced with this fresh medium. Cell viability was detected after 24 h incubation. […] TEXT PRINTED IN THE PICTURE: (F) no label printed: Diameter: 153.2±4.6; polydispersity index: 0.218
To verify that the activity of AG-08 arises from its supramolecular structures, freshly prepared AG-08 solutions were filtered using 220 nm-filters to remove AG-08 supramolecular particles from medium, and the filtrates were analyzed for their cytotoxicity. […] Next, Tween-20 was utilized as a non-ionic detergent to block particle formation, and AG-08-mediated cell death was inhibited as expected (Fig. 1E). […]

[3] = system: HeLa, HCC1937, MCF7, A549 and MRC-5; test: cells; type: cell-based, Human; settings: for IC50: Homo sapiens, range over HeLa, HCC1937, MCF7, A549, MRC-5, read-out: IC50 across the five cell lines
Description: We next aimed to further characterize the relation between the chemical structure of AG-08 and its capacity of supramolecular assembly formation together with its biological activities by preparing further derivatives. In this regard, 18 analogs (Fig. 4) were synthesized from 20(27)-octanor-cycloastragenol (SCG), cycloastragenol (CG), and astragenol (AG) by the methods shown in the method section. The details and characterization of which are shown in Supplementary Information. The cytotoxic activities of the semi-synthetic analogs were evaluated against four human cancer cell lines, namely HeLa, HCC1937, MCF7, and A549 as well as against MRC-5 as a normal cell line.
as §1, §2

HCC1937 [4] = test: LDH (lactate dehydrogenase) releasing assay; type: cell-based, Human; settings: LDH release and immunoblotting
Protocol: Figure 5 The cytotoxic activity of analogs depends on particle formation like AG-08. […] The level of released LDH was calculated as fold change relative to vehicle. […] After 24 h, cell viability was measured. […] Cell viability after 24 h was measured. The reported values correspond to mean values ± standard deviation (± s.d) of three experiments. ***p < 0.001, ****p < 0.0001.
LDH-Cytotoxicity Colorimetric Assay Kit II (Biovision) was used to detect LDH releasing. Briefly, HCC1937 were seeded on 96 well plate. After treatment with compounds, cells were centrifuged at 600×g for 10 min. 10 µl supernatant were transferred into clean 96 well plate and added into 100 µl LDH Reaction Mix. Following 30 min incubation at room temperature, 10 µl stop solution were added, and absorbance was measured at 450 nm (Varioscan, Thermo Fisher Scientific, US).

[5] = fibrils inducing apoptosis; cited from earlier work

| Structure (SMILES) | IC50 (MCF7) [µM] | IC50 (HeLa) [µM] | IC50 (HCC1937 [1]) [µM] | IC50 (A549) [µM] | IC50 (MRC-5) [µM] | Nile red fluorescence intensity (particle formation) [2] | formation of supramolecular assemblies/particles (HCC1937 cells) | cytotoxic activity (structure-activity statement) [3] | IC50 [3] [µM] | mode of cell death (HCC1937 [4]) | concentration at which fibrils form [5] [µM] |
| --- | --- | --- | --- | --- | --- | --- | --- | --- | --- | --- | --- |
| CC(C)(O)C1CCC(C)(C2C(O)CC3(C)C4CC(O)C5C(C)(CCC(O)C5(C)C)C4=CCC23C)O1 (centres unmarked) [AG, astragenol, reference compound] | > 30 | > 30 | > 30 | > 30 | > 30 | no fluorescence intensity |  |  |  |  |  |
| Cc1ccc(S(=O)(=O)OC2CCC3(C)C4=CCC5(C)C(C6(C)CCC(C(C)(C)O)O6)C(O)CC5(C)C4CC(=O)C3C2(C)C)cc1 (centres unmarked) [AG-05] | 2.55 | 5.9 | 4.28 | 2.02 | 1.55 |  | form supramolecular assemblies; also recorded: formed supramolecular particles | higher activity | 1.55 to 5.9 | induced necrotic cell death |  |
| CC(=O)Nc1ccc(S(=O)(=O)OC2CCC3(C)C4=CCC5(C)C(C6(C)CCC(C(C)(C)O)O6)C(O)CC5(C)C4C=CC3C2(C)C)cc1 (centres unmarked) [AG-06] | 9.34 | 10.8 | 10 | 5.7 | 19.1 |  | formed supramolecular particles | decrease in activity | 5.7 to 19.1 | induced necrotic cell death |  |
| Cc1ccc(S(=O)(=O)OC2CCC34CC35CCC3(C)C(C6(C)CCC(C(C)(C)O)O6)C(O)CC3(C)C5C=CC4C2(C)C)cc1 (centres unmarked) [CG-03] | 5.5 | 12.9 | 6.13 | 3.65 | 5.29 |  | form supramolecular assemblies; also recorded: formed supramolecular particles |  | 3.65 to 12.9 | induced necrotic cell death |  |
| Cc1ccc(S(=O)(=O)OC2CCC34CC35CCC3(C)C(C6(C)CCC(C(C)(C)O)O6)C(O)CC3(C)C5CC(=O)C4C2(C)C)cc1 (centres unmarked) [CG-05] | 3.85 | 6.1 | 2.66 | 1.85 | 2.58 |  | form supramolecular assemblies; also recorded: formed supramolecular particles | higher activity | 1.85 to 6.1 | induced necrotic cell death |  |
| CC(=O)Nc1ccc(S(=O)(=O)OC2CCC34CC35CCC3(C)C(C6(C)CCC(C(C)(C)O)O6)C(O)CC3(C)C5C=CC4C2(C)C)cc1 (centres unmarked) [CG-06] | 41.3 | > 50 | 38.1 | > 50 | > 50 |  | form supramolecular assemblies | complete activity loss |  | induced necrotic cell death |  |
| C=C(C)[C@@H]1CC[C@]2(C(=O)O)CC[C@]3(C)[C@H](CC[C@@H]4[C@@]5(C)CC[C@H](O)C(C)(C)[C@@H]5CC[C@]43C)[C@@H]12 [betulinic acid] |  |  |  |  |  |  |  |  |  |  | > 50000 |
